Assay results as given in the supplement of paper PMC10307832.

Columns and labels:
Assay in all cases: relative viability (nuclei count vs DMSO), 5 days (fraction); higher = more cells survive
[1] = compound: C#Cc1cccc(Nc2ncnc3cc(OC)c(OCCCCCCC(=O)NO)cc23)c1 [CUDC-101] + CCNC(=O)c1noc(-c2cc(C(C)C)c(O)cc2O)c1-c1ccc(CN2CCOCC2)cc1 [Luminespib] (partner 0.01 µM)
How it was run: (§1)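 Nuclei were stained with Hoechst during a one-step fixation (final 0.05% Triton X-100, 1% formaldehyde, 1 ug/ml Hoechst) carried out 5 days after dosing, then counted on 4× images. The cells, lung cancer lines in 1536-well plates, had been dosed by pin tool the day after seeding with one drug alone or a fixed anchor-drug dose plus five library-drug doses (not always all listed) in √10 steps. Relative viability is the nuclei count in treated wells divided by that in vehicle wells, and each value is the median of duplicate plates.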

[2] = compound: C1=CC=C2C(=C1)N=C(S2)C(C#N)C3=NC(=NC=C3)NCCC4=CN=CC=C4 + Nc1ncn([C@H]2C[C@H](O)[C@@H](CO)O2)c(=O)n1 [Decitabine] (partner 2 µM)
How it was run: as §1

[3] = compound: C1=CC=C2C(=C1)N=C(S2)C(C#N)C3=NC(=NC=C3)NCCC4=CN=CC=C4 + O=C(c1cc(Cc2n[nH]c(=O)c3ccccc23)ccc1F)N1CCN(C(=O)C2CC2)CC1 [Olaparib] (partner 8 µM)
How it was run: as §1

[4] = compound: C1=CC=C2C(=C1)N=C(S2)C(C#N)C3=NC(=NC=C3)NCCC4=CN=CC=C4 + Cc1nc(Nc2ncc(C(=O)Nc3c(C)cccc3Cl)s2)cc(N2CCN(CCO)CC2)n1 [Dasatinib] (partner 0.075 µM)
How it was run: as §1

| Cell Line | relative viability ([1]; first compound 0.01 µM) | relative viability ([1]; first compound 0.03162 µM) | relative viability ([1]; first compound 0.1 µM) | relative viability ([1]; first compound 0.3162 µM) | relative viability ([1]; first compound 1 µM) | relative viability ([2]; first compound 0.005 µM) | relative viability ([2]; first compound 0.01581 µM) | relative viability ([2]; first compound 0.05 µM) | relative viability ([2]; first compound 0.1581 µM) | relative viability ([2]; first compound 0.5 µM) | relative viability ([3]; first compound 0.005 µM) | relative viability ([3]; first compound 0.01581 µM) | relative viability ([3]; first compound 0.05 µM) | relative viability ([3]; first compound 0.1581 µM) | relative viability ([3]; first compound 0.5 µM) | relative viability ([4]; first compound 0.005 µM) | relative viability ([4]; first compound 0.01581 µM) | relative viability ([4]; first compound 0.05 µM) | relative viability ([4]; first compound 0.1581 µM) | relative viability ([4]; first compound 0.5 µM) |
| --- | --- | --- | --- | --- | --- | --- | --- | --- | --- | --- | --- | --- | --- | --- | --- | --- | --- | --- | --- | --- |
| EMC-BAC-2 | 1.29 | 1.08 | 1.2 | 1.22 | 0.973 | 0.872 | 0.984 | 0.916 | 1.04 | 0.91 | 0.512 | 0.481 | 0.469 | 0.476 | 0.427 | 0.334 | 0.359 | 0.364 | 0.388 | 0.324 |
| NCI-H2170 | 0.626 | 0.286 | 0.719 | 0.471 | 0.465 | 0.419 | 0.46 | 0.425 | 0.468 | 0.488 | 0.592 | 0.686 | 0.621 | 0.598 | 0.458 | 0.447 | 0.498 | 0.501 | 0.675 | 0.611 |
| HCC-827 | 0.531 | 0.241 | 0.278 | 0.217 | 0.197 | 0.318 | 0.322 | 0.319 | 0.399 | 0.328 | 0.568 | 0.616 | 0.728 | 0.657 | 0.566 | 0.331 | 0.301 | 0.336 | 0.307 | 0.284 |
| ChaGo-K-1 | 0.74 | 0.522 | 0.625 | 0.709 | 0.609 | 0.488 | 0.53 | 0.518 | 0.542 | 0.511 | 0.372 | 0.425 | 0.408 | 0.421 | 0.402 |  | 0.567 | 0.577 | 0.681 | 0.545 |
| LXF-289 | 0.651 | 0.632 | 0.741 | 0.752 | 0.449 | 0.345 | 0.419 | 0.4 | 0.405 | 0.336 | 0.966 | 1.13 | 1.1 | 1.17 | 0.979 | 0.152 | 0.237 | 0.209 | 0.24 | 0.179 |
| NCI-H2342 | 0.764 | 0.644 | 0.829 | 0.737 | 0.692 | 0.727 | 0.844 | 0.694 | 0.837 | 0.71 | 0.536 | 0.454 | 0.495 | 0.442 | 0.45 | 0.32 | 0.314 | 0.349 | 0.328 | 0.337 |
| HOP-62 | 0.931 | 0.875 | 0.902 | 0.859 | 0.794 | 0.219 | 0.184 | 0.263 | 0.234 | 0.248 | 0.741 | 0.368 | 0.408 | 0.265 | 0.191 | 0.496 | 0.59 | 0.685 | 0.807 | 0.565 |
| LCLC-103H | 0.975 | 0.931 | 0.943 | 0.92 | 0.754 | 0.723 | 0.731 | 0.69 | 0.762 | 0.751 | 0.628 | 0.829 | 0.764 | 0.849 | 0.649 | 0.415 | 0.456 | 0.473 | 0.507 | 0.312 |
| LOU-NH91 | 0.395 | 0.216 | 0.334 | 0.385 | 0.316 | 0.85 | 0.822 | 0.765 | 0.818 | 0.8 | 0.914 | 0.914 | 0.826 | 0.888 | 0.801 | 0.501 | 0.567 | 0.509 | 0.58 | 0.471 |
| NCI-H1915 | 0.908 | 0.787 | 0.774 | 0.788 | 0.551 |  | 0.259 | 0.239 | 0.264 | 0.27 |  | 0.266 | 0.249 | 0.283 | 0.292 | 0.36 | 0.294 | 0.28 | 0.335 | 0.357 |
| NCI-H1395 | 0.623 | 0.733 | 0.906 | 0.802 | 0.663 | 0.721 |  | 0.732 | 0.769 | 0.742 | 0.476 |  | 0.475 | 0.457 | 0.541 | 0.353 | 0.398 | 0.408 | 0.411 | 0.396 |
| COR-L23 | 0.801 | 0.734 | 0.658 | 0.632 | 0.353 | 0.439 | 0.45 | 0.415 | 0.472 | 0.424 | 0.318 | 0.327 | 0.355 | 0.373 | 0.306 | 0.427 | 0.516 | 0.499 | 0.581 | 0.489 |
| NCI-H1734 | 0.206 | 0.185 | 0.193 | 0.167 | 0.157 | 0.453 | 0.49 | 0.522 | 0.495 | 0.488 | 0.509 | 0.616 | 0.664 | 0.633 | 0.614 |  | 0.476 | 0.479 | 0.605 | 0.401 |
| NCI-H2405 | 0.797 | 0.662 | 0.703 | 0.917 | 0.741 | 0.658 | 0.771 | 0.737 | 0.689 | 0.725 | 0.797 | 0.835 | 0.897 | 0.867 | 0.77 | 0.214 | 0.187 | 0.168 | 0.234 | 0.219 |
| NCI-H2087 | 0.174 | 0.186 | 0.176 | 0.177 | 0.198 | 0.255 | 0.266 | 0.345 | 0.367 | 0.282 | 0.385 | 0.562 | 0.509 | 0.759 | 0.433 | 0.72 | 0.927 | 0.81 | 1.09 | 0.651 |
| NCI-H1793 | 0.17 | 0.174 | 0.174 | 0.201 | 0.143 |  | 0.521 | 0.424 | 0.538 | 0.465 |  | 0.931 | 0.781 | 0.995 | 0.804 | 0.366 | 0.419 | 0.363 | 0.436 | 0.435 |
| NCI-H2085 | 0.479 | 0.446 | 0.437 | 0.45 | 0.385 | 0.518 | 0.555 | 0.585 | 0.502 | 0.533 | 0.765 | 0.765 | 0.738 | 0.778 | 0.794 | 0.277 | 0.216 | 0.236 | 0.237 | 0.219 |
| NCI-H358 | 0.263 | 0.407 | 0.225 | 0.659 | 0.448 | 0.234 | 0.21 | 0.221 | 0.216 | 0.206 | 0.413 | 0.658 | 0.653 | 0.698 | 0.419 | 0.177 | 0.155 | 0.162 | 0.178 | 0.245 |
| NCI-H2023 | 0.807 | 0.568 | 0.855 | 0.797 | 0.632 | 0.245 | 0.236 | 0.209 | 0.245 | 0.243 | 0.508 | 0.543 | 0.562 | 0.541 | 0.447 | 0.454 | 0.519 | 0.504 | 0.78 | 0.364 |
| SW 1573 | 0.238 | 0.252 | 0.516 | 0.187 | 0.164 | 0.36 | 0.497 | 0.252 | 0.436 | 0.504 | 0.337 | 0.491 | 0.496 | 0.508 | 0.484 | 0.587 | 0.44 |  | 0.494 | 0.324 |
| SW 900 | 0.168 | 0.181 | 0.185 | 0.157 | 0.174 | 0.393 | 0.342 | 0.401 | 0.557 | 0.391 | 0.65 | 0.755 | 0.838 | 0.938 | 0.87 | 0.625 | 0.53 | 0.564 | 0.844 | 0.543 |
| NCI-H3122 | 0.118 | 0.0939 | 0.0988 | 0.112 | 0.0815 | 0.333 | 0.394 | 0.492 | 0.577 | 0.441 | 0.671 | 0.655 | 0.691 | 0.788 | 0.885 | 0.826 | 0.824 | 0.873 | 1.03 | 0.686 |
| NCI-H661 | 0.985 | 0.975 | 0.876 | 0.835 | 0.674 | 0.467 | 0.52 | 0.529 | 0.622 | 0.589 | 0.543 | 0.8 | 0.723 | 0.801 | 0.613 | 0.778 | 0.785 | 0.817 | 0.917 | 0.805 |
| NCI-H441 | 0.359 | 0.381 | 0.304 | 0.414 | 0.371 | 0.267 | 0.303 | 0.252 | 0.246 | 0.239 | 0.423 | 0.643 | 0.544 | 0.683 | 0.455 |  | 0.663 | 0.638 | 0.473 | 0.425 |
| NCI-H596 | 1.12 | 0.936 | 0.923 | 0.927 | 0.972 | 0.711 | 1 | 1 | 0.919 | 0.985 | 0.599 | 0.59 | 0.608 | 0.632 | 0.643 | 0.559 | 0.559 | 0.534 | 0.526 | 0.619 |
| PC-3 [JPC-3] | 0.739 | 0.648 | 0.64 | 0.563 | 0.301 | 0.952 |  | 0.758 | 0.825 | 0.762 | 1.01 |  | 1.08 | 1.12 | 0.679 | 0.877 | 1.07 | 0.962 | 1.08 | 0.73 |
| NCI-H1993 | 0.933 | 0.772 | 0.72 | 0.772 | 0.535 | 0.663 | 0.641 | 0.607 | 0.699 | 0.59 | 0.903 | 1.06 | 1.18 | 0.986 | 1.06 | 0.565 | 0.607 | 0.487 | 0.673 | 0.536 |
